79 compounds from the Kinase Knowledgebase extract (Sharma et al. 2016) can be followed below.

Bounds are passed on as bounds.

This assay deals with PIK3CD (Human) (UniProt O00329). As to the kind of experiment: Assessment of PIK3CD Kinase Activity (Scintillation Proximity Assay). (In general: In a scintillation proximity assay essentially only radioactivity close to the scintillant gives light.)
Sequence of PIK3CD (Human) (O00329 whole entry, looked up): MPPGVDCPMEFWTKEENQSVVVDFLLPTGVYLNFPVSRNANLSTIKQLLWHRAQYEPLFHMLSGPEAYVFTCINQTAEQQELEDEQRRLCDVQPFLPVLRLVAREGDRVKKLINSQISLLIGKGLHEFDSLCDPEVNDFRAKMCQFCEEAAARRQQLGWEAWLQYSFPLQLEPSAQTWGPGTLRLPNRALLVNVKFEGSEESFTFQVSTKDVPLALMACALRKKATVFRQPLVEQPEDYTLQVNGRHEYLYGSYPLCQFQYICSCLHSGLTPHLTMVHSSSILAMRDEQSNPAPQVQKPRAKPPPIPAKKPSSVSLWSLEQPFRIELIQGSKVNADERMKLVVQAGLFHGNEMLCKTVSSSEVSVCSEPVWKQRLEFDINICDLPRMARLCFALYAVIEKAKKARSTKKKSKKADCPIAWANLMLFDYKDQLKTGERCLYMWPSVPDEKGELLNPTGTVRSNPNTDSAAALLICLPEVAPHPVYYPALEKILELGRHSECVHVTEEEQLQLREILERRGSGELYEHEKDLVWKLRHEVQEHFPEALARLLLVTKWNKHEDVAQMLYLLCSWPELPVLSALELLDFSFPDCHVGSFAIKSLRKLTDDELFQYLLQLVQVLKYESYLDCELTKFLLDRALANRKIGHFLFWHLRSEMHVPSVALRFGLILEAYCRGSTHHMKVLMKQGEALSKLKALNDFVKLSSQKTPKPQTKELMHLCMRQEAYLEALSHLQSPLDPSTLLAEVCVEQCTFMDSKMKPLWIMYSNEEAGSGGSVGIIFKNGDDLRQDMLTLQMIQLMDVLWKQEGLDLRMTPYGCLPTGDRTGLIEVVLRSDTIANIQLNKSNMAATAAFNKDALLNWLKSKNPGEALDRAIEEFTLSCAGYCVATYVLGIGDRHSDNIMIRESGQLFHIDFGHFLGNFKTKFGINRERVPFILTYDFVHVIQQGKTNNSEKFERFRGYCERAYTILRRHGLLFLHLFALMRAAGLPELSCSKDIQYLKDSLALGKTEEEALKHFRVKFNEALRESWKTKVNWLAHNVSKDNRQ

Consider `CCOc1c(C(C)n2nc(C)c3c(N)ncnc32)cc(Cl)c(C#N)c1C1CN(CC(C)C)C1` (centres undefined), for which the 50% inhibitory concentration (IC50) (in general, the point on the concentration scale where inhibition reaches its midpoint) is at most 10 nM.

As to `COc1c(C(C)n2nc(C)c3c(N)ncnc32)cc(Cl)c(C#N)c1C1CN(CC(C)C)C1` (centres undefined), the concentration for half-maximal inhibition (IC50) is at most 10 nM. Consider `CCOc1c(C(C)n2nc(C)c3c(N)ncnc32)cc(Cl)c(C#N)c1C1CN(C(C)(C)CO)C1` (centres undefined), for which the IC50 is at most 10 nM. In the case of `CNC(=O)c1ccc(-c2c(C)c(Cl)cc(C(C)n3nc(C)c4c(N)ncnc43)c2OC)cc1F` (centres undefined) it was at most 10 nM; in that of `COc1c(C(C)n2nc(C)c3c(N)ncnc32)cc(Cl)c(C)c1-c1cnn(C(C)C(=O)N(C)C)c1` (centres undefined), at most 10 nM; in that of `COc1c(C(C)n2nc(C)c3c(N)ncnc32)cc(Cl)c(F)c1C1CN(C)C1` (centres undefined), at most 10 nM. Compound `COc1c(C(C)n2nc(C)c3c(N)ncnc32)cc(Cl)c(C#N)c1-c1ccc(C(=O)N(C)C)nc1` (centres undefined) yielded a half-inhibitory concentration (IC50) of at most 10 nM.

With `COc1c(C(C)n2nc(C)c3c(N)ncnc32)cc(Cl)c(C)c1CC#N` (centres undefined), the IC50 is at most 10 nM. In the case of `CCOc1c(C(C)n2nc(C)c3c(N)ncnc32)cc(Cl)c(C#N)c1C1CN(C(=O)C(C)C)C1` (centres undefined) it was at most 10 nM; in that of `CCOc1c(C(C)n2nc(CO)c3c(N)ncnc32)cc(Cl)c(C)c1-c1ccc(C(=O)N(C)C)nc1` (centres undefined), at most 10 nM; in that of `COc1c(C(C)n2nc(C)c3c(N)ncnc32)cc(Cl)c(C)c1-c1cncc(S(C)(=O)=O)c1` (centres undefined), at most 10 nM. With `CCOc1c(C(C)n2nc(C)c3c(N)ncnc32)cc(Cl)c(C#N)c1-c1ccc(C(C)(C)O)nc1` (centres undefined), the half-maximal inhibitory concentration (IC50) is at most 10 nM. As to `COc1c(C(C)n2nc(C)c3c(N)ncnc32)cc(Cl)c(C)c1C1CN(C[C@@H](C)O)C1` (some centres undefined), the IC50 is at most 10 nM. In turn, `CCOc1c(C(C)n2nc(C)c3c(N)ncnc32)cc(Cl)c(C)c1-c1cncc(C(=O)N(C)C)c1` (centres undefined) showed an IC50 of at most 10 nM. In the case of `CCNC(=O)c1c(C)c(Cl)cc(C(C)n2nc(-c3cc(O)cc(F)c3)c3c(N)ncnc32)c1OCC` (centres undefined) it was at most 10 nM.

Take `CCOc1c(C(C)n2nc(C)c3c(N)ncnc32)cc(Cl)c(C#N)c1C1CN(CC2CCOC2)C1` (centres undefined): the IC50 is at most 10 nM. In the case of `CCNC(=O)c1c(C)c(Cl)cc(C(C)n2nc(C)c3c(N)ncnc32)c1-c1cc(F)cc(F)c1` (centres undefined) it was at most 10 nM; in that of `CCOc1c(C(C)n2nc(C)c3c(N)ncnc32)cc(Cl)c(C)c1-c1ccnc(C(=O)N(C)C)c1` (centres undefined), at most 10 nM; in that of `COc1c(C(C)n2ncc3c(N)ncnc32)cc(Cl)c(C)c1-c1ccnc(C(=O)NCCO)c1` (centres undefined), 50 to 200 nM. In the case of `CCOc1c(C(C)n2ccc(=O)c3c(N)ncnc32)cc(Cl)c(C#N)c1-c1ccc(C(=O)N(C)C)nc1` (centres undefined) it was at most 10 nM; in that of `CCNC(=O)c1c(C)c(Cl)cc(C(C)n2nc(-c3cn[nH]c3)c3c(N)ncnc32)c1OCC` (centres undefined), at most 10 nM. `CCOc1c(C(C)n2nc(C#C[C@H](C)O)c3c(N)ncnc32)cc(Cl)c(C)c1-c1ccc(C(=O)N(C)C)nc1` (some centres undefined) had an IC50 of at most 10 nM.

Consider `COc1c(C(C)n2nc(C)c3c(N)ncnc32)cc(Cl)c(C)c1C1CN(CC(F)(F)F)C1` (centres undefined), for which the IC50 was at most 10 nM. The same measure for `CCOc1c(C(C)n2nc(-c3ccc(C(=O)NC)nc3)c3c(N)ncnc32)cc(Cl)c(C)c1-c1ccc(C(=O)N(C)C)nc1` (centres undefined): at most 10 nM; for `CCOc1c(C(C)n2nc(C)c3c(N)ncnc32)cc(Cl)c(C#N)c1-c1ccc(-c2nnn(C)n2)nc1` (centres undefined): at most 10 nM. The same measure for `CCOc1c(C(C)n2nc(C(F)F)c3c(N)ncnc32)cc(Cl)c(F)c1C1CN(C)C1` (centres undefined): at most 10 nM.

`COc1c(C(C)n2nc(C)c3c(N)ncnc32)cc(Cl)c(C)c1-c1ccc(C(=O)N(C)C)nc1` (centres undefined) gave a half-inhibitory concentration (IC50) of at most 10 nM. For the compound `COc1c(C(C)n2nc(C)c3c(N)ncnc32)cc(Cl)c(F)c1C1CN(CCO)C1` (centres undefined), the IC50 is at most 10 nM. The same measure for `COc1c(C(C)n2nc(C)c3c(N)ncnc32)cc(Cl)c(C)c1C1CN(C(C)=O)C1` (centres undefined): at most 10 nM; for `CCOc1c(C(C)n2nc(C)c3c(N)ncnc32)cc(Cl)c(C#N)c1C1CN(C(C)(C)C(N)=O)C1` (centres undefined): at most 10 nM. In the case of `COc1c(C(C)n2nc(C)c3c(N)ncnc32)cc(Cl)c(C)c1C1CN(C(C)C)C1` (centres undefined) it was at most 10 nM. As for `CCOc1c(C(C)n2nc(C)c3c(N)ncnc32)cc(Cl)c(C)c1-c1cncc(S(C)(=O)=O)c1` (centres undefined), the IC50 is at most 10 nM. Take `CCOc1c(C(C)n2nc(C(F)F)c3c(N)ncnc32)cc(Cl)c(F)c1C1CN(CC(C)(C)O)C1` (centres undefined): the IC50 is at most 10 nM.

Compound `COc1c(C(C)n2nc(C)c3c(N)ncnc32)cc(Cl)c(C#N)c1-c1cncc(S(C)(=O)=O)c1` (centres undefined) showed an IC50 of at most 10 nM. The same measure for `CCOc1c(C(C)n2nc(C)c3c(N)ncnc32)cc(Cl)c(C#N)c1C1CN(C[C@@H](C)O)C1` (some centres undefined): at most 10 nM; for `CCOc1c(C(C)n2nc(C)c3c(N)ncnc32)cc(Cl)c(C#N)c1C1CN(C(=O)N(C)C)C1` (centres undefined): at most 10 nM; for `COc1c(C(C)n2nc(C)c3c(N)ncnc32)cc(Cl)c(C#N)c1C1CN(CC2CCOC2)C1` (centres undefined): at most 10 nM. In the case of `COc1c(C(C)n2nc(C(F)F)c3c(N)ncnc32)cc(C#N)c(C)c1C1CN(CCO)C1` (centres undefined) it was at most 10 nM.

The compound `COc1c(C(C)n2nc(C)c3c(N)ncnc32)cc(Cl)c(C)c1C1CN(C[C@H](O)C(F)(F)F)C1` (some centres undefined) gave an IC50 of at most 10 nM. In the case of `COc1c(C(C)n2ccc(=O)c3c(N)ncnc32)cc(Cl)c(C)c1C1CN(C(C)C)C1` (centres undefined) it was at most 10 nM; in that of `CCOc1c(C(C)n2nc(C)c3c(N)ncnc32)cc(Cl)c(C#N)c1C1CN(CCC(F)(F)F)C1` (centres undefined), at most 10 nM; in that of `CCOc1c(C(C)n2nc(C)c3c(N)ncnc32)cc(Cl)c(C#N)c1-c1cncc(C(=O)N(C)C)c1` (centres undefined), at most 10 nM.

On to `CCOc1c(C(C)n2nc(C)c3c(N)ncnc32)cc(Cl)c(C)c1C#N` (centres undefined), for which the half-inhibitory concentration (IC50) is at most 10 nM.

In turn, `COc1c(C(C)n2nc(C)c3c(N)ncnc32)cc(Cl)c(C)c1-c1ccnc(C(=O)NCCO)c1` (centres undefined) returned a concentration for half-maximal inhibition (IC50) of at most 10 nM.

The compound `COC(=O)N1CC(c2c(C#N)c(Cl)cc(C(C)n3nc(C)c4c(N)ncnc43)c2OC)C1` (centres undefined) returned an IC50 of at most 10 nM.

In the case of `COc1c(C(C)n2nc(C)c3c(N)ncnc32)cc(Cl)c(F)c1C1CN(C[C@H](C)O)C1` (some centres undefined), the IC50 was at most 10 nM.

The compound `CCOc1c(C(C)n2nc(C)c3c(N)ncnc32)cc(Cl)c(C#N)c1-c1cncc(-c2ncco2)c1` (centres undefined) registered a half-maximal inhibitory concentration (IC50) of at most 10 nM. Consider `CCOc1c(C(C)n2nc(C)c3c(N)ncnc32)cc(Cl)c(F)c1C1CN(C(C)C)C1` (centres undefined), for which the IC50 was at most 10 nM. In turn, `CCOc1c(C(C)n2nc(C)c3c(N)ncnc32)cc(Cl)c(C)c1C1CN(C[C@H](C)O)C1` (some centres undefined) registered an IC50 of at most 10 nM. In the case of `COc1c(C(C)n2nc(C)c3c(N)ncnc32)cc(Cl)c(C)c1CC1CC1` (centres undefined) it was 50 to 200 nM. In the case of `COc1c(C(C)n2nc(C(F)F)c3c(N)ncnc32)cc(C#N)c(C)c1C1CN(C(C)=O)C1` (centres undefined) it was at most 10 nM; in that of `COc1c(C(C)n2nc(C)c3c(N)ncnc32)cc(Cl)c(C)c1C1CN(CC(N)=O)C1` (centres undefined), at most 10 nM; in that of `CCOc1c(C(C)n2nc(C)c3c(N)ncnc32)cc(Cl)c(C#N)c1-c1cncc(C(=O)NC)c1` (centres undefined), at most 10 nM. As to `COc1c(C(C)n2nc(C)c3c(N)ncnc32)cc(Cl)c(C#N)c1C1CN(C2CCOC2)C1` (centres undefined), the IC50 was at most 10 nM. `CCNC(=O)N1CC(c2c(C#N)c(Cl)cc(C(C)n3nc(C)c4c(N)ncnc43)c2OC)C1` (centres undefined) had a 50% inhibitory concentration (IC50) of at most 10 nM.

For `CCOc1c(C(C)n2nc(C)c3c(N)ncnc32)cc(C)c(C#N)c1C1CN(CC(C)(C)O)C1` (centres undefined), the half-inhibitory concentration (IC50) is at most 10 nM. Take `COc1c(C(C)n2nc(C)c3c(N)ncnc32)cc(Cl)c(C#N)c1C1CN(S(C)(=O)=O)C1` (centres undefined): the concentration for half-maximal inhibition (IC50) is at most 10 nM. The same measure for `CCOc1c(C(C)n2nc(C)c3c(N)ncnc32)cc(Cl)c(C#N)c1-c1ccc(C(=O)N(C)C)nc1` (centres undefined): at most 10 nM; for `COc1c(C(C)n2nc(C)c3c(N)ncnc32)cc(Cl)c(C)c1C1CNC(=O)CO1` (centres undefined): at most 10 nM. In the case of `CCOc1c(C(C)n2nc(CC)c3c(N)ncnc32)cc(Cl)c(C)c1-c1ccc(C(=O)N(C)C)nc1` (centres undefined) it was 50 to 200 nM; in that of `CCOc1c(C(C)n2nc(C)c3c(N)ncnc32)cc(Cl)c(C#N)c1C1CNC1` (centres undefined), at most 10 nM; in that of `CCOc1c(C(C)n2nc(C)c3c(N)ncnc32)cc(Cl)c(C#N)c1C1CN(S(=O)(=O)CC)C1` (centres undefined), at most 10 nM. The same measure for `CCOc1c(C(C)n2nc(C3CC3)c3c(N)ncnc32)cc(Cl)c(C)c1-c1ccc(C(=O)N(C)C)nc1` (centres undefined): at most 10 nM; for `COc1c(C(C)n2nc(-c3cn[nH]c3)c3c(N)ncnc32)cc(Cl)c(C)c1C1CN(CC#N)C1` (centres undefined): at most 10 nM; for `CCOc1c(C(C)n2nc(C)c3c(N)ncnc32)cc(Cl)c(C#N)c1C1CN(C(=O)OC(C)C)C1` (centres undefined): at most 10 nM. With `CNC(=O)N1CC(c2c(C#N)c(Cl)cc(C(C)n3nc(C)c4c(N)ncnc43)c2OC)C1` (centres undefined), the half-inhibitory concentration (IC50) is at most 10 nM. With `COc1c(C(C)n2nc(C)c3c(N)ncnc32)cc(Cl)c(C)c1-c1cncc(C#N)c1` (centres undefined), the concentration for half-maximal inhibition (IC50) is at most 10 nM. With `CCOc1c(C(C)n2nc(-c3cn[nH]c3)c3c(N)ncnc32)cc(Cl)c(C)c1-c1ccc(C(=O)N(C)C)nc1` (centres undefined), the IC50 is at most 10 nM.

Compound `COc1c(C(C)n2ccc3c(N)ncnc32)cc(Cl)c(C)c1-c1ccc(C(=O)N(C)C)nc1` (centres undefined) came in with a 50% inhibitory concentration (IC50) of 200 to 500 nM. The same measure for `COc1c(C(C)n2nc(C(F)F)c3c(N)ncnc32)cc(C#N)c(C)c1C1CN(CC(F)(F)F)C1` (centres undefined): at most 10 nM; for `CCOc1c(C(C)n2nc(C)c3c(N)ncnc32)cc(Cl)c(C)c1-c1cnn(CC(N)=O)c1` (centres undefined): at most 10 nM; for `COc1c([C@H](C)n2nc(C)c3c(N)ncnc32)cc(Cl)c(C#N)c1C1CN(C[C@@H](C)O)C1`: at most 10 nM. On to `CCOc1c(C(C)n2nc(C)c3c(N)ncnc32)cc(Cl)c(C#N)c1N1CC(OC)C1` (centres undefined), for which the IC50 was at most 10 nM. Take `COc1c(C(C)n2nc(C)c3c(N)ncnc32)cc(Cl)c(C)c1-c1ccnc(N2CC(O)C2)c1` (centres undefined): the half-maximal inhibitory concentration (IC50) was at most 10 nM. Compound `COc1c(C(C)n2nc(C)c3c(N)ncnc32)cc(Cl)c(C#N)c1C1CN(C(C)=O)C1` (centres undefined) had an IC50 of at most 10 nM. Regarding `CCOc1c(C(C)n2nc(-c3ccncc3)c3c(N)ncnc32)cc(Cl)c(C)c1-c1ccc(C(=O)N(C)C)nc1` (centres undefined), the IC50 is at most 10 nM. `COc1c(C(C)n2nc(C)c3c(N)ncnc32)cc(Cl)c(C)c1C1CN(CC(C)C#N)C1` (centres undefined) yielded an IC50 of at most 10 nM. Take `COc1c(C(C)n2nc(C(F)F)c3c(N)ncnc32)cc(Cl)c(F)c1C1CN(C[C@H](C)O)C1` (some centres undefined): the half-inhibitory concentration (IC50) is at most 10 nM. With `CCOc1c(C(C)n2nc(C)c3c(N)ncnc32)cc(Cl)c(C#N)c1C1CN(C2CCC2)C1` (centres undefined), the IC50 is at most 10 nM.
